From PubChem BioAssay AID651618 (Broad Institute, 2012) come the findings set out here.

Calls of active or inactive are those of the source. No rule for the calls is given here.

Tested on in the first experiment: not listed separately
In words: replicating M. tuberculosis growth inhibition, dose response, counter-screen, dry powder, IC90 (AID 651618). The note with it: M. tuberculosis replicating log phase, growth inhibition. (Counterscreens check selectivity or assay interference.)
With `c1ccc(CNc2nnc(-c3ccccc3)o2)cc1`, the outcome was inactive. The same measure, in the same setting: for `c1ccc(CSc2nnc(-c3ccco3)o2)cc1` the value was “inactive”. Same read-out and setting: under `FC(F)(F)Oc1ccc(CSc2nnc(-c3ccccc3)o2)cc1` stands “inactive”; under `Fc1ccc(CSc2nnc(-c3ccccc3)o2)cc1`, “inactive”; under `Clc1cccc(-c2nnc(SCc3ccccc3)o2)c1`, “inactive”. On the same count and under the same terms, for `FC(F)(F)Oc1ccc(-c2nnc(SCc3ccccc3)o2)cc1` the value was “inactive”. Take `c1ccc(-c2nnc(SCc3cscn3)o2)cc1`: the result was inactive. The same measure, in the same setting: for `Cc1ccccc1CSc1nnc(-c2ccccc2)o1` the value was “inactive”; for `CS(=O)(=O)c1ccc(-c2nnc(SCc3ccccc3)o2)cc1`, “inactive”; for `CS(=O)(=O)c1ccccc1-c1nnc(SCc2ccccc2)o1`, “inactive”. On the same count and under the same terms, for `c1ccc(CSc2nnc(-c3cnco3)o2)cc1` the value was “inactive”; for `c1ccc(CSc2nnc(-c3cscn3)o2)cc1`, “inactive”. For `CS(=O)(=O)c1ccc(CSc2nnc(-c3ccccc3)o2)cc1`, the outcome was inactive. On the same count and under the same terms, for `CS(=O)(=O)c1ccccc1CSc1nnc(-c2ccccc2)o1` the value was “inactive”. Take `Fc1cccc(-c2nnc(SCc3ccccc3)o2)c1`: the result was inactive.

As for `COc1ccc(-c2nnc(SCc3ccccc3)o2)cc1`, the outcome was inactive. Take `FC(F)(F)Oc1ccccc1-c1nnc(SCc2ccccc2)o1`: the outcome was inactive. Still for that read-out and setting: under `N#Cc1cccc(-c2nnc(SCc3ccccc3)o2)c1` stands “inactive”. `c1ccc(CSc2ncc(-c3ccccc3)o2)cc1`: the outcome was inactive. Turning to `c1ccc(-c2nnc(SCCN3CCOCC3)o2)cc1`, the result was inactive. The same measure, in the same setting: for `Cc1cccc(-c2nnc(SCc3ccccc3)o2)c1` the value was “inactive”; for `Clc1ccc(-c2nnc(SCc3ccccc3)o2)cc1`, “inactive”. As to `c1ccc(CNCCSc2nnc(-c3ccccc3)o2)cc1`, the outcome was inactive.

In the case of `CS(=O)(=O)c1cccc(CSc2nnc(-c3ccccc3)o2)c1`, the result was inactive.

On to `Clc1ccccc1CSc1nnc(-c2ccccc2)o1`, for which the outcome was inactive. Same read-out and setting: for `FC1(F)CN(CCSc2nnc(-c3ccccc3)o2)C1` the value was “inactive”; for `FC(F)(F)CNCCSc1nnc(-c2ccccc2)o1`, “inactive”.

In the case of `O=C(Cc1ccccc1)C(C(=O)c1nnc(-c2ccccc2)o1)c1ccccc1` (stereo unspecified), the outcome was inactive. With `c1ccc(CSc2nnc(Cc3ccccc3)o2)cc1`, the outcome was inactive. Same read-out and setting: for `CC1(O)CN(CCSc2nnc(-c3ccccc3)o2)C1` the value was “inactive”; for `FC(F)(F)c1ccccc1-c1nnc(SCc2ccccc2)o1`, “inactive”; for `Brc1ccc(CSc2nnc(-c3ccccc3)o2)cc1`, “inactive”. `N#Cc1ccccc1CSc1nnc(-c2ccccc2)o1`: the outcome was inactive. `c1ccc(CSc2nnc(-c3ccncc3)o2)cc1`: the outcome was inactive. In the case of `COc1ccc(-c2nnc(SCc3ccc(Cl)cc3)o2)cc1`, the outcome was inactive. Same read-out and setting: for `Cc1ccc(CSc2nnc(-c3ccccc3)o2)cc1` the value was “inactive”; for `O=C(Cc1ccccc1)c1nnc(-c2ccccc2)o1`, “inactive”.

For `CN(C)CCSc1nnc(-c2ccccc2)o1`, the result was inactive. Regarding `COc1ccc(CSc2nnc(-c3ccccc3)o2)cc1`, the outcome was inactive.

For the compound `c1ccc(-c2nnc(SCCN3CCCC3)o2)cc1`, the result was inactive. Turning to `CN(Cc1ccccc1)c1nnc(-c2ccccc2)o1`, the result was inactive. As for `Clc1ccc(CSc2nnc(-c3ccccc3)o2)cc1`, the outcome was inactive. On the same count and under the same terms, under `CS(=O)(=O)c1cccc(-c2nnc(SCc3ccccc3)o2)c1` stands “inactive”; under `c1ccc(CCc2nnc(-c3ccccc3)o2)cc1`, “inactive”; under `Fc1ccc(-c2nnc(SCc3ccccc3)o2)cc1`, “inactive”. For `FC(F)(F)c1ccc(-c2nnc(SCc3ccccc3)o2)cc1`, the outcome was inactive. The same measure, in the same setting: for `c1ccc(-c2ccc(CSc3nnc(-c4ccccc4)o3)cc2)cc1` the value was “inactive”; for `N#Cc1ccc(CSc2nnc(-c3ccccc3)o2)cc1`, “inactive”.

`FC(F)(F)c1ccccc1CSc1nnc(-c2ccccc2)o1`: the result was inactive. Same read-out and setting: for `c1ccc(CSc2nnc(-c3ccccn3)o2)cc1` the value was “inactive”. With `N#Cc1cccc(CSc2nnc(-c3ccccc3)o2)c1`, the result was inactive.

`FC(F)(F)Oc1cccc(CSc2nnc(-c3ccccc3)o2)c1`: the outcome was inactive. Turning to `FC(F)(F)Oc1ccccc1CSc1nnc(-c2ccccc2)o1`, the result was inactive. Turning to `c1ccc(CSc2nnc(-c3ccccc3)s2)cc1`, the outcome was inactive. As to `COc1ccccc1CSc1nnc(-c2ccccc2)o1`, the outcome was inactive. Same read-out and setting: for `Clc1ccccc1-c1nnc(SCc2ccccc2)o1` the value was “inactive”. Regarding `Clc1cccc(CSc2nnc(-c3ccccc3)o2)c1`, the result was inactive. In the case of `Fc1ccccc1-c1nnc(SCc2ccccc2)o1`, the result was inactive. On the same count and under the same terms, for `FC(F)(F)c1cccc(-c2nnc(SCc3ccccc3)o2)c1` the value was “inactive”.

Take `Cc1nnc(SCc2ccccc2)o1`: the outcome was inactive. As for `c1ccc(CSc2nnc(-c3ccc(-c4ccccc4)cc3)o2)cc1`, the outcome was inactive. Still for that read-out and setting: for `c1ccc(CSc2nnc(-c3cc4ccccc4o3)o2)cc1` the value was “inactive”; for `c1ccc(-c2nnc(SCc3ncco3)o2)cc1`, “inactive”; for `N#Cc1ccc(-c2nnc(SCc3ccccc3)o2)cc1`, “inactive”. On the same count and under the same terms, under `Cc1ccccc1-c1nnc(SCc2ccccc2)o1` stands “inactive”; under `FC(F)(F)c1ccc(CSc2nnc(-c3ccccc3)o2)cc1`, “inactive”. Consider `c1ccc(-c2nnc(SC(c3ccccc3)c3ccccc3)o2)cc1`, for which the outcome was inactive.

The next experiment concerns M. tuberculosis replicating log phase, growth inhibition. Described as above.
Conditions: not given
Consider `c1ccc(CSc2nnc(-c3cccnc3)o2)cc1`, for which the concentration for an effect of 90% (IC90) (in general, the concentration needed for an effect of 90%) was 250 µM. For the compound `c1ccc(CSc2nnc(C3CCCC3)o2)cc1`, the IC90 is 250 µM. On the same count and under the same terms, under `FC(F)(F)Oc1cccc(-c2nnc(SCc3ccccc3)o2)c1` stands 250 µM.

In the case of `COc1cccc(-c2nnc(SCc3ccccc3)o2)c1`, the IC90 was 250 µM.

For `Cc1ccc(-c2nnc(SCc3ccccc3)o2)cc1`, the IC90 was 125 µM. In the case of `c1ccc(-c2nnc(SCCN3CCN(c4ccccc4)CC3)o2)cc1`, the IC90 was 125 µM. The same measure, in the same setting: for `Fc1cccc(CSc2nnc(-c3ccccc3)o2)c1` the value was 250 µM; for `COCCOCCSc1nnc(-c2ccccc2)o1`, 250 µM; for `COc1ccccc1-c1nnc(SCc2ccccc2)o1`, 250 µM. Take `COc1cccc(CSc2nnc(-c3ccccc3)o2)c1`: the IC90 is 250 µM.

With `c1ccc(CSc2nnc(-c3cccs3)o2)cc1`, the IC90 was 250 µM.

For the compound `Cc1cccc(CSc2nnc(-c3ccccc3)o2)c1`, the concentration for an effect of 90% (IC90) is 250 µM. Still for that read-out and setting: under `FC(F)(F)c1cccc(CSc2nnc(-c3ccccc3)o2)c1` stands 250 µM.

Turning to `Fc1ccccc1CSc1nnc(-c2ccccc2)o1`, the IC90 is 250 µM. `FC1(F)CCN(CCSc2nnc(-c3ccccc3)o2)CC1`: the concentration for an effect of 90% (IC90) was 250 µM. On the same count and under the same terms, for `CC(C)c1nnc(SCc2ccccc2)o1` the value was 250 µM; for `c1ccc(CCc2nnc(SCc3ccccc3)o2)cc1`, 250 µM; for `c1ccc(CSc2nnc(-c3ccccc3)o2)cc1`, 125 µM.

For the compound `c1ccc(CSc2nnc(C3CCCCC3)o2)cc1`, the IC90 was 250 µM.
